Measurements reported in article PMC10952195, “A single coiled‐coil domain mutation in hIKCa channel subunits disrupts preferential formation of heteromeric hSK1:hIKCa channels” (The European Journal of Neuroscience, 2023).
“Also recorded” adds a separate entry of the source. Where two headings read alike, the source gives them in different places. Ends that are not written are not given here.

What was measured:
[1] = molecular target: T1, heteromeric hSK1:hIKCa channel (Homo sapiens, UniProt O15554+Q92952); test: Ca2+ activation of ramp currents, inside-out macropatches, heteromeric hSK1:hIKCa; type: cell-based
T1 construct: expressed in transfected cells; host or cells: tsA201 cells
T1 sequence (O15554 whole entry): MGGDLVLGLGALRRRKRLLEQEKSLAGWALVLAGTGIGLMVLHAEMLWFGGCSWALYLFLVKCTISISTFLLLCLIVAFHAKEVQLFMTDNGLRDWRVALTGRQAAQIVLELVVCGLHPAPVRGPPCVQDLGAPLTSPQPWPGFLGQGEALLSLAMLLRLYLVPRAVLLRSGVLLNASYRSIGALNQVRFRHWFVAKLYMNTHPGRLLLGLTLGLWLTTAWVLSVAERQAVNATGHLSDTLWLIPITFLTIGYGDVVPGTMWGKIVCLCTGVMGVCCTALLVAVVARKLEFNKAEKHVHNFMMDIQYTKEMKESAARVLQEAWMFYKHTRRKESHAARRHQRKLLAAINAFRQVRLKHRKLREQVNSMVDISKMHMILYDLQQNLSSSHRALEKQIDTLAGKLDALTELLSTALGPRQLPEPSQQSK
T1 sequence (Q92952 other isoform, or with tags, fused parts or gaps): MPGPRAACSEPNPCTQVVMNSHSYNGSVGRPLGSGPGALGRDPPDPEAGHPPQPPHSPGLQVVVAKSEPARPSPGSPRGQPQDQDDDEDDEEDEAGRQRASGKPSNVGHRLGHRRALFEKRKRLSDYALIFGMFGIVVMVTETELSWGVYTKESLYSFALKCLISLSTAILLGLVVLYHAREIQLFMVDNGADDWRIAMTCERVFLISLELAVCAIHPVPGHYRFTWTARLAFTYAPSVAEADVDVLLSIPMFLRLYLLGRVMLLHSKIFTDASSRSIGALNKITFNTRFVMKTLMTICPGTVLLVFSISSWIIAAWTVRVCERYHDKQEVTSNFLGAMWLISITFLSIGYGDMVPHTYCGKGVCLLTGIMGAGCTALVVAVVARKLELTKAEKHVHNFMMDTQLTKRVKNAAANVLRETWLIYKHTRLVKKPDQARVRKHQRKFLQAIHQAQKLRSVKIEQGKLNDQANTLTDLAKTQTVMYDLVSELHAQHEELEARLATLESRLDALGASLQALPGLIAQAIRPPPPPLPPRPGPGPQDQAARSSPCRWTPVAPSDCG
Experimental: (§1) TsA201 cells were maintained in culture at 37°C and 5% CO2, being grown in culture flasks with Dulbecco's Modified Eagle Medium (DMEM) supplemented with foetal bovine serum (10%) and penicillin and streptomycin (1%). Cells were passaged at ~80% confluence. The cDNA of KCa channel subunits and one encoding expression of enhanced green fluorescent protein (eGFP) (using pcDNA3.1 or equivalent vectors) were transfected into tsA201 cells using polyethylenimine (PEI) (Merck/Sigma, UK) at a concentration of 0.2 mg/mL (Higham et al., [2019]). Cells were used 48 h after transfection. All mutations were carried out using QuikChange II XL (Stratagene).
(§2) Sensitivity of expressed channels to Ca^2+ was assessed using inside‐out macropatches excised from eGFP‐positive cells, using electrodes of resistance 1–3 MΩ. A range of free Ca^2+ concentrations was used, from 30 nM to 3 μM in half log10 increments. We used external solution to bath inside‐out patches, with the free Ca^2+ concentration calculated to maintain free Mg^2+ at 1 mM. Solutions were designed using REACT, with pH adjusted to 7.4 and osmolarity between 280 and 310 mOsm.

hIKCa channel = molecular target: T2, hIKCa channel (Homo sapiens, UniProt O15554); test: Ca2+ activation of ramp currents, inside-out macropatches, homomeric hIKCa; type: cell-based
T2 construct: expressed in transfected cells; host or cells: tsA201 cells
T2 sequence (O15554 whole entry): as the sequence (O15554 whole entry) above
Experimental: as §1, §2

hSK1 channel [2] = test: Ca2+ activation of ramp currents, inside-out macropatches, homomeric hSK1; type: cell-based, human
Experimental: as §1, §2

[3] = tested on: SK channels native to CA1 hippocampal neurons; design: method as in Hirschberg et al., 1999; details: ref Hirschberg et al., 1999; read-out: EC50 for activation of SK channels native to CA1 hippocampal neurons; cited from earlier work
[4] = tested on: hSK1:hIKCa[H389E] channels; test: Outside-out patch current inhibition, cells co-expressing hSK1 and hIKCa[H389E]; type: cell-based, human; details: biphasic fit, hSK1:hIKCa[H389E]-mediated current
Experimental: as §1
(§3) Outside‐out patches were excised from eGFP‐positive cells, pulled from thick‐walled (1.5 mm OD × 0.86 mm ID) borosilicate glass capillaries (Harvard Apparatus, UK), fire‐polished and filled with internal solution containing in mM: 97 K aspartate, 20 KCl, 1.5 Na2ATP, 10 EGTA, 9.65 CaCl2 (1 μM free Ca^2+), 10 HEPES Na, 2.5 MgCl2 (pH 7.4 and osmolarity between 280 and 310 mOsm). Cells were bathed in, and patches excised into, an external solution containing in mM: 97 K Aspartate, 30 KCl, 10 HEPES Na^+, 6.19 CaCl2 (1 μM free Ca^2+), 1.44 MgCl2 (pH 7.4, 280–310 mOsm). Free Ca^2+ concentrations were calculated using REACT (University of Strathclyde). […] Current was measured using an Axopatch 200A amplifier, low‐pass filtered (cut off 1 kHz, Bessel, Frequency Devices) and acquired at 10 kHz (Pulse, HEKA). All recordings were made at room temperature. Apamin (Sigma‐Aldrich, UK), 6,12,19,20,25,26‐hexahydro‐5,27:13,18:21,24‐trietheno‐11,7‐metheno‐7H‐dibenzo [b,n] […] UCL1684 was dissolved at a stock concentration of 100 μM in DMSO, and aliquots were stored at −20°C. Finally, apamin was dissolved in distilled water at a stock concentration of 100 μM, and aliquots were stored at −20°C. All compounds were defrosted on the day of recording, with aliquots only thawed once, and desired concentrations were prepared by dilution in external solution.
(§4) Biphasic concentration–inhibition relationships were fitted using the following equation: I/Icontrol=Amin+Afrac−Amin/1+10^LogIC50,a−X×nH,a +Amax−Amin/1+10^LogIC50,b−X×nH,b where A frac is current amplitude at the maximum of the high‐sensitivity component I frac /I cont , IC 50,a is the IC50 of the high‐sensitivity component, n H,a is the Hill coefficient of the high‐sensitivity component, IC 50,b is the IC50 of the low‐sensitivity component, and n H,b is the Hill coefficient of the low‐sensitivity component. […] Statistical significance was determined using appropriate tests that are stated in the figure legend.

[5] = molecular target: hSK1:hIKCa[H389E] channels (Homo sapiens, UniProt O15554+Q92952, H389E); test: as above; type: cell-based
hSK1:hIKCa[H389E] channels (Homo sapiens, UniProt O15554+Q92952, H389E), sequence (O15554 whole entry H389E): as the sequence (O15554 whole entry) above, with H389E counted along it
hSK1:hIKCa[H389E] channels (Homo sapiens, UniProt O15554+Q92952, H389E), sequence (Q92952 whole entry): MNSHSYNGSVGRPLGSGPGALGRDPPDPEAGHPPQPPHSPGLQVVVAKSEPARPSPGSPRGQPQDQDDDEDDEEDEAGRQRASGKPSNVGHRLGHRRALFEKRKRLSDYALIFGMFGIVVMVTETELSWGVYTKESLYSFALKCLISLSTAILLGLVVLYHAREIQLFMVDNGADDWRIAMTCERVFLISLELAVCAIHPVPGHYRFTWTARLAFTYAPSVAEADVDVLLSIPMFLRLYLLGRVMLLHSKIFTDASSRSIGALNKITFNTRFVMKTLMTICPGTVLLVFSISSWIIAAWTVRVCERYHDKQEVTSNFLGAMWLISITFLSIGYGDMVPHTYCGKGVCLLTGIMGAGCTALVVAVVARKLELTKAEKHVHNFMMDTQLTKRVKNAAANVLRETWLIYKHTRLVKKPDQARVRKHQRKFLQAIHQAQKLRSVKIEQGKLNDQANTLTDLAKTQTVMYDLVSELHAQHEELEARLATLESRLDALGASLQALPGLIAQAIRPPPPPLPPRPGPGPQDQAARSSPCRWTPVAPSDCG
Experimental: as §1, §3, §4

hSK1 channel [6] = test: Outside-out patch current inhibition, homomeric hSK1; type: cell-based, human
Experimental: as §1
(§5) Outside‐out patches were excised from eGFP‐positive cells, pulled from thick‐walled (1.5 mm OD × 0.86 mm ID) borosilicate glass capillaries (Harvard Apparatus, UK), fire‐polished and filled with internal solution containing in mM: 97 K aspartate, 20 KCl, 1.5 Na2ATP, 10 EGTA, 9.65 CaCl2 (1 μM free Ca^2+), 10 HEPES Na, 2.5 MgCl2 (pH 7.4 and osmolarity between 280 and 310 mOsm). Cells were bathed in, and patches excised into, an external solution containing in mM: 97 K Aspartate, 30 KCl, 10 HEPES Na^+, 6.19 CaCl2 (1 μM free Ca^2+), 1.44 MgCl2 (pH 7.4, 280–310 mOsm). Free Ca^2+ concentrations were calculated using REACT (University of Strathclyde). […] Current was measured using an Axopatch 200A amplifier, low‐pass filtered (cut off 1 kHz, Bessel, Frequency Devices) and acquired at 10 kHz (Pulse, HEKA). […]
as §4

[7] = molecular target: T1, heteromeric hSK1:hIKCa channel; test: Outside-out patch current inhibition, heteromeric wildtype hSK1:hIKCa expressed in tsA201 cells; type: cell-based; details: for extent of inhibition of heteromeric hSK1:hIKCa current: concentration-inhibition relationship
Experimental: as §1, §3, §4

[8] = molecular target: T1, heteromeric hSK1:hIKCa channel; details: ref Higham et al., 2019, Church et al.; cited from earlier work
[9] = tested on: slow AHP of hippocampal neurons; details: ref King et al., 2015, Shah & Haylett, 2000, Church et al., 2019, Higham et al.; cited from earlier work
hSK1 channel [10] = tested on: hSK1 channel; design: method as in Higham et al., 2019; details: ref Higham et al., 2019; cited from earlier work
[11] = tested on: hSK1[S348T + A371V] channel; test: Outside-out patch current inhibition, homomeric pore mutant hSK1[S348T + A371V]; type: cell-based, human
Experimental: as §1
as §5, with “Cells were bathed in, and patches excised into, an external solution containing in mM: 97 K Aspartate, 30 KCl, 10 HEPES Na^+, 6.19 CaCl2 (1 μM free Ca^2+), 1.44 MgCl2 (pH 7.4, 280–310 mOsm).” left out

hIKCa (WT) channel = molecular target: T3, hIKCa (WT) channel (Homo sapiens, UniProt O15554); test: Outside-out patch current inhibition, homomeric wildtype hIKCa expressed in tsA201 cells; type: cell-based
T3 construct: expressed in transfected cells; host or cells: tsA201 cells
T3 sequence (O15554 whole entry): as the sequence (O15554 whole entry) above
Experimental: as §1
as §5, with “Cells were bathed in, and patches excised into, an external solution containing in mM: 97 K Aspartate, 30 KCl, 10 HEPES Na^+, 6.19 CaCl2 (1 μM free Ca^2+), 1.44 MgCl2 (pH 7.4, 280–310 mOsm).” left out

[12] = molecular target: hSK1[S348T + A371V]:hIKCa heteromeric channel (Homo sapiens, UniProt O15554+Q92952, A355V/S330T); test: Outside-out patch current inhibition, heteromeric hSK1[S348T + A371V]:hIKCa; type: cell-based
hSK1[S348T + A371V]:hIKCa heteromeric channel, sequence (O15554 whole entry): as above
hSK1[S348T + A371V]:hIKCa heteromeric channel, sequence (Q92952 whole entry S330T/A355V): as the sequence (Q92952 whole entry) above, with S330T, A355V counted along it
Experimental: as §1
as §5, with “Cells were bathed in, and patches excised into, an external solution containing in mM: 97 K Aspartate, 30 KCl, 10 HEPES Na^+, 6.19 CaCl2 (1 μM free Ca^2+), 1.44 MgCl2 (pH 7.4, 280–310 mOsm).” left out

hIKCa[H389E] channel = molecular target: T4, hIKCa[H389E] channel (Homo sapiens, UniProt O15554, H389E); test: Outside-out patch current inhibition, homomeric hIKCa[H389E]; type: cell-based; details: TRAM-34 10 μM
T4 construct: expressed in transfected cells; host or cells: tsA201 cells
T4 sequence (O15554 whole entry H389E): as the sequence (O15554 whole entry) above, with H389E counted along it
Experimental: as §1
as §5, with “Cells were bathed in, and patches excised into, an external solution containing in mM: 97 K Aspartate, 30 KCl, 10 HEPES Na^+, 6.19 CaCl2 (1 μM free Ca^2+), 1.44 MgCl2 (pH 7.4, 280–310 mOsm).” left out

[13] = concentration-inhibition relationship

[Ca+2] [Ca^2+]
activity of heteromeric hSK1:hIKCa channels at 100 nM Ca2+ ([1]; 100 nM Ca2+): inactive
nH for activation of heteromeric hSK1:hIKCa-mediated ramp currents ([1]; inside-out patches): 3.93 ± 0.29
EC50 ([1]; inside-out patches, tsA201 cells, read-out: EC50 for activation of heteromeric hSK1:hIKCa-mediated ramp currents): 613 ± 27.6 nM
activity of homomeric hIKCa channels at 100 nM Ca2+ (hIKCa channel; 100 nM Ca2+): 10%
nH for activation of homomeric hIKCa-mediated ramp currents (hIKCa channel; inside-out patches): 4.10 ± 0.57
EC50 (hIKCa channel; inside-out patches, tsA201 cells, read-out: EC50 for activation of homomeric hIKCa-mediated ramp currents): 409 ± 15.3 nM
activity of homomeric hSK1 channels at 100 nM Ca2+ (hSK1 channel [2]; 100 nM Ca2+): inactive
nH for activation of homomeric hSK1-mediated current (hSK1 channel [2]; inside-out patches): 5.26 ± 0.82
EC50 (hSK1 channel [2]; inside-out patches, tsA201 cells, read-out: EC50 for activation of homomeric hSK1-mediated current): 531 ± 78 nM
EC50 [3]: 560 nM

[Br-].[Br-].c1cc2cc(c1)C[n+]1ccc(c3ccccc31)NCc1ccc(cc1)CNc1cc[n+](c3ccccc13)C2 [UCL1684, 6,12,19,20,25,26‐hexahydro‐5,27:13,18:21,24‐trietheno‐11,7‐metheno‐7H‐dibenzo [b,n] [1,5,12,16]tetraazacyclotricosine‐5,13‐diium dibromide]
nH(a) of the high-sensitivity component [4]: 0.910 ± 0.02
nH(b) of the low-sensitivity component [4]: 0.930 ± 0.1
IC50 ([4]; read-out: IC50(a) of the high-sensitivity component): 0.511 ± 0.0002 nM
IC50 ([4]; read-out: IC50(b) of the low-sensitivity component): 301 ± 84.6 nM
maximal inhibition of hSK1:hIKCa[H389E]-mediated current ([5]; two component concentration-inhibition curve): 50.9 ± 12.5%
extent of inhibition of homomeric hSK1-mediated current (hSK1 channel [6]; [13]): maximally inhibited
difference in sensitivity between homomeric hSK1-mediated and heteromeric hSK1:hIKCa-mediated current (hSK1 channel [6]; hSK1 versus hSK1:hIKCa): < 200 fold
IC50 (hSK1 channel [6]; outside-out patches, tsA201 cells, maximal inhibition, read-out: IC50 for inhibition of homomeric hSK1-mediated current): 0.783 ± 0.38 nM
extent of inhibition of heteromeric hSK1:hIKCa current [7]: sub‐maximally inhibited
IC50 ([7]; outside-out patches, tsA201 cells, 1 μM free Ca2+, sub-maximal inhibition, read-out: IC50 for inhibition of heteromeric hSK1:hIKCa (WT) current): 236 ± 82 nM

charybdotoxin
sensitivity of hSK1:hIKCa channel current [8]: sensitive
sensitivity of the slow AHP [9]: sensitive

Clc1ccccc1C(c1ccccc1)(c1ccccc1)n1cccn1 [TRAM‐34, 1‐[(2‐chlorophenyl)diphenylmethyl]‐1H‐pyrazole]
extent of inhibition of hSK1:hIKCa[H389E] current [5, 13]: only partially inhibited
sensitivity of hSK1:hIKCa channel current [8]: sensitive
effect on wildtype hSK1-mediated current (hSK1 channel [10]): insensitive; also recorded: does not affect
sensitivity of the slow AHP [9]: sensitive
extent of block of hSK1[S348T + A371V]-mediated current ([11]; TRAM-34 10 μM): fully blocked
extent of inhibition of homomeric hIKCa-mediated current (hIKCa (WT) channel; [13]): fully inhibited
inhibition at 10 µM (hIKCa (WT) channel; tsA201, TRAM-34 10 μM, read-out: inhibition of hIKCa (WT)-mediated current): 87 ± 2.6%
extent of inhibition of hSK1[S348T + A371V]:hIKCa current ([12]; TRAM-34 10 μM): fully sensitive
block of hIKCa[H389E]-mediated current (hIKCa[H389E] channel): 83.7 ± 2.0%
extent of inhibition of heteromeric hSK1:hIKCa current [7]: sub‐maximal inhibition

apamin: SK channel inhibitor; negative allosteric inhibitor for SK1–3 channels (CNCKAPETALCARRCQQH; not fully specified (C-terminus, bridges); cysteine pairing not given here; UniProt P01500 28-45, looked up)
reduction of current amplitude, cells co-expressing hSK1 and hIKCa[H389E] ([5]; apamin 100 nM): 17.3 ± 1.8%
sensitivity of hSK1:hIKCa channel current [8]: insensitive
sensitivity of the slow AHP [9]: insensitive
extent of inhibition of hSK1[S348T + A371V] current ([11]; apamin 100 nM): completely inhibited
sensitivity of hSK1[S348T + A371V]:hIKCa current ([12]; apamin 100 nM): insensitive
effect on current from cells co-expressing wildtype hSK1 and hIKCa ([7]; apamin 100 nM): had no effect
